According to patent publication EP1140809B1, “NEW BIPHENYL AND BIPHENYL-ANALOGOUS COMPOUNDS AS INTEGRIN ANTAGONISTS” (Bayer HealthCare AG, priority 1998, dated 2000):

Tests used:
αvβ3 receptor = biological target: T1, αvβ3 receptor (Homo sapiens, UniProt P05106+P06756); test: Binding to the αvβ3 receptor (echistatin displacement, WGA SPA beads); settings: αvβ3 purified from human A375 cells, labelled echistatin, read-out: avb3 IC50
T1 construct: αvβ3 from human A375 cells were purified according to a procedure described by Wong et al; endogenous in cells; host or cells: human A375 cells; receptor purified from the cells, detergent-solubilised
Experimental: a) Binding to the αvβ3 receptor
10 µl αvβ3 (5 ng) in TBS pH 7.6, 2 mM CaCl2, 1mM MgCl2, 1% n/octylglucopyranoside; 10 µl of the substance to be tested in TBS pH 7.6, 0.1 % dimethylsulfoxide (DMSO), and 45 µl TBS pH 7.6, 2 mM CaCl2, 1 mM MgCl2, 1 mM MnCl2 were each incubated for 1 h at room temperature.

Smooth muscle cells = test: Smooth muscle cell (SMC) migration test (horizontal, vitronectin-coated plates); type: cell-based, humans or rats; settings: migration on vitronectin, 24 hours at 37°C; human or rat cells not specified
Experimental: b) Smooth muscle cell (SMC) migration test
Smooth muscle cells from humans or rats were used. The migration of the cells was determined in a horizontal measuring arrangement (Falcon).
The horizontal migration was determined in 6-well plates coated with vitronectin (1 µg/cm^2). The cells were suspended in a medium ([…]-rat smooth muscle cells or MCDB 131 with 0.2% BSA-human smooth muscle cells), inoculated and allowed to grow to confluence. Half of the smooth muscle cell lawn was then scraped off, and the cells were treated with different concentrations of the test compounds. The mixtures were incubated for 24 hours at 37°C in the presence of 5% CO2. After the incubation, the smooth muscle cell migration was determined by measurement of the migration distance and the cell density of the migrated cells.

αvβ5 receptor = αvβ5 receptor (Homo sapiens, UniProt P06756+P18084); settings: disclosed in WO 98/00395; cited from earlier work
Chain of αvβ5 receptor (P06756 31-889 limits assumed): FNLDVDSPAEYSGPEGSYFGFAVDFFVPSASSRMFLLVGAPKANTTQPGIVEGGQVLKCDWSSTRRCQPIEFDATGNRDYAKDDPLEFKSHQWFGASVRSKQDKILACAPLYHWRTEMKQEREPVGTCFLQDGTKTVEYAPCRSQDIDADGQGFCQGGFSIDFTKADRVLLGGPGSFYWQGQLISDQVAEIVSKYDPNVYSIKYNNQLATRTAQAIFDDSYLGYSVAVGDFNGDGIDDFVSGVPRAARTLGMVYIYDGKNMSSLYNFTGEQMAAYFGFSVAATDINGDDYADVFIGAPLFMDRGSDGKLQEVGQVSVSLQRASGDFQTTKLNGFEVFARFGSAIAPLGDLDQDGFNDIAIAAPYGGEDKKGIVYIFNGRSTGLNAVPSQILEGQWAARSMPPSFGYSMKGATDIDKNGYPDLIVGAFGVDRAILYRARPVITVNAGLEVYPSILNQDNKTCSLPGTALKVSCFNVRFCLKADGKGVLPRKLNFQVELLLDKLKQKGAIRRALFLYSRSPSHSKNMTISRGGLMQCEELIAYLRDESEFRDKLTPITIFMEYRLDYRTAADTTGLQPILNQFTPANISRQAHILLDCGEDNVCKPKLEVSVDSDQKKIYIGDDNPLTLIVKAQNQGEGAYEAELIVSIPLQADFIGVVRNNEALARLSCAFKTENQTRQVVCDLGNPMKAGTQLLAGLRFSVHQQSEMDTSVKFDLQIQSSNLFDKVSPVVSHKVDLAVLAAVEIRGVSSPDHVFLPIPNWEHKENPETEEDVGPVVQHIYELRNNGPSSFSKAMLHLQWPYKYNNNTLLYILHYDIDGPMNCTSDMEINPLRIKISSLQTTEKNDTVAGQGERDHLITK
Chain of αvβ5 receptor (P06756 891-1048 partner limits assumed): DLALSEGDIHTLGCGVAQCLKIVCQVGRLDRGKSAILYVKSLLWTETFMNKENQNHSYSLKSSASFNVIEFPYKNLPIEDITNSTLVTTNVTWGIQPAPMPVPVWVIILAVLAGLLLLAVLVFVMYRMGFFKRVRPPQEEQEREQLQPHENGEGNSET
Chain of αvβ5 receptor (P18084 24-799): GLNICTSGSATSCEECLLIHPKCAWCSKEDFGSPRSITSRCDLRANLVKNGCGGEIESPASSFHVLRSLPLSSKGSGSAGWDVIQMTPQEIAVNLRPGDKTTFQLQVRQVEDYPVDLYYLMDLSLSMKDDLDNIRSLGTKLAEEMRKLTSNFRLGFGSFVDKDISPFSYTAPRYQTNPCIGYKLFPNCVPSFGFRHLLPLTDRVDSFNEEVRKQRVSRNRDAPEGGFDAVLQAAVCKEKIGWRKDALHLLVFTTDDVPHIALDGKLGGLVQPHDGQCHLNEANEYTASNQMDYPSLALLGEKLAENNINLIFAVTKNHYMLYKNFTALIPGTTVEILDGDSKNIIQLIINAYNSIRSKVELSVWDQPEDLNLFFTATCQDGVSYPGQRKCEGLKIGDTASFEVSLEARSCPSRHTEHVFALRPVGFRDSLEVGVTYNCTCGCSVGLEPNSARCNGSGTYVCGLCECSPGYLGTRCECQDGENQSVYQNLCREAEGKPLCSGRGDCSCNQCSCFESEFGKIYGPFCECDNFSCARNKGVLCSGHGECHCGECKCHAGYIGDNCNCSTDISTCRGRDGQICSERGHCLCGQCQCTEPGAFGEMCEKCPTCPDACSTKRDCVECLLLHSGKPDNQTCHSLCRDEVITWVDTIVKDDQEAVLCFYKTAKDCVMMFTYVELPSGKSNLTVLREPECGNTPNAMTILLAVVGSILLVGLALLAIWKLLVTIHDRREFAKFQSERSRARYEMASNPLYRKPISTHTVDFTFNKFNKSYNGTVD

T1 sequence (P06756 31-889 limits assumed): as the sequence (P06756 31-889 limits assumed) above
T1 sequence (P06756 891-1048 partner limits assumed): as the sequence (P06756 891-1048 partner limits assumed) above
T1 sequence (P05106 27-788): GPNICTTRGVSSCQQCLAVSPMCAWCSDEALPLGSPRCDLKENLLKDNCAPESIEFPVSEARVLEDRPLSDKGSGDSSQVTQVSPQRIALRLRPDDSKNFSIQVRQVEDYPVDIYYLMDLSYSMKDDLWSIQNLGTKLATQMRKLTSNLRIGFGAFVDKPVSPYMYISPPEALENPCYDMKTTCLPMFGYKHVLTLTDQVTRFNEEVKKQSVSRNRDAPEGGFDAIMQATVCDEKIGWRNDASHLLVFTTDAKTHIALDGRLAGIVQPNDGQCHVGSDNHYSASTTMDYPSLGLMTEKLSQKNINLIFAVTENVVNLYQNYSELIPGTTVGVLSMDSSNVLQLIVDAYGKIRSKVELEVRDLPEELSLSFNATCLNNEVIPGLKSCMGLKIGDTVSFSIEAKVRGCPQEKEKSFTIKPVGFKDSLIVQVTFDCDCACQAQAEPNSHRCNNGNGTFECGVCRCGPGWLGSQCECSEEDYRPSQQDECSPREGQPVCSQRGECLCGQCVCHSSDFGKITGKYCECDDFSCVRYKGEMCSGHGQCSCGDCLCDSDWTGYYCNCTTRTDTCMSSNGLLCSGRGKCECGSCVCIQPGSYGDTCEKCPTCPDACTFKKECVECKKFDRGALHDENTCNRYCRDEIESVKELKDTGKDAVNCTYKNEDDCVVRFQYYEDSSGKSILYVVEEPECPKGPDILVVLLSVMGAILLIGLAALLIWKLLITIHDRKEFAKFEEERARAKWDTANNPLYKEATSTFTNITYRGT

IC50 (αvβ3 receptor) | IC50 (Smooth muscle cells) | Compound | IC50 (αvβ5 receptor)
9 nM | 35 to 80 nM | Cc1cc(C)c(S(=O)(=O)N[C@@H](Cc2ccc(-c3cccc(CNc4ccccn4)c3)cc2)C(=O)O)c(C)c1 [Example 18.1.3, (2S)-2-Mesitylsulfonylamino-3-{3'-[(2-pyridinylamino)-methyl][1,1'-biphenyl]-4-yl}-propanoic acid] | –
– | 3 to 40 nM | CC1(C)C2CCC1(CS(=O)(=O)NC(Cc1ccc(-c3cccc(NC(=O)Nc4cccnc4)c3)cc1)C(=O)O)C(=O)C2 [Example 1.73, (2S)-3-[3'-(3-Pyridin-3-yl-ureido)-biphenyl-4-yl]-2-[(S)-campher-10-yl-sulfonylamino]-propanoic acid] | –
– | 300 nM | O=C(O)CC(NS(=O)(=O)c1cccc(-c2cccc(CNCc3nc4ccccc4[nH]3)c2)c1)c1ccccc1 (racemic) [Example 8.1, (3R,S)-3-(3'-{[(1H-Benzoimidazol-2-ylmethyl)-amino]-methyl}-biphenyl-3-sulfonylamino)-3-phenyl-propanoic acid] | –
1 nM | 80 nM | Cc1cc(C)c(S(=O)(=O)N[C@@H](Cc2ccc(-c3cccc(NC(=O)c4ncc[nH]4)c3)cc2)C(=O)O)c(C)c1 [Example 19.1.2, (2S)-3-{3'-[(1H-imidazol-2-ylcarbonyl)amino][1,1'-biphenyl]-4-yl}-2-[(mesitylsulfonyl)amino]-propanoic acid] | –
1.2 nM | 390 nM | Cc1cc(C)c(S(=O)(=O)N[C@@H](Cc2ccc(-c3cccc(NC(=O)NC4CC4)c3)cc2)C(=O)O)c(C)c1 [Example 1.13, (2S)-3-[3'-(3-Cyclopropyl-ureido)-biphenyl-4-yl]-2-(2,4,6-trimethyl-benzenesulfonylamino)-propanoic acid] | –
33 nM | 300 nM | O=C(O)CNS(=O)(=O)c1cccc(-c2cccc(NC(=O)NCc3ccccn3)c2)c1 [Example 4.1, [3'-(3-Pyridin-2-ylmethyl-ureido)-biphenyl-3-sulfonylamino]-acetic acid] | –
– | – | CC1(C)C2CCC1(CS(=O)(=O)NC(Cc1ccc(OCCCC(=O)NC(=N)N)cc1)C(=O)O)C(=O)C2 (centres unmarked) [(I)] | 0.16 nM
1.2 nM | – | Cc1cc(C)c(S(=O)(=O)NC(Cc2ccc(-c3cccc(NC4=NCCN4)c3)cc2)C(=O)O)c(C)c1 (racemic) [Example 7.1, (2R,S)-3-[3'-(4,5-Dihydro-1H-Imidazol-2-ylamino)-biphenyl-4-yl]-2-(2,4,6-trimethyl-benzenesulfonylamino)-propanoic acid] | –
5 nM | 480 nM | Cc1cc(C)c(S(=O)(=O)NC(Cc2ccc(-c3cccc(NC(=O)NCc4cccnc4)c3)cc2)C(=O)O)c(C)c1 (racemic) [Example 1.5, (2R,S)-3-[3'-(3-(Pyridin-3-yl-methylureido)-biphenyl-4-yl]-2-[2,4,6-trimethylbenzenesulfonylamino]-propanoic acid] | –
